Molecular target: T1, matrix metalloproteinase 9 (MMP-9) (Homo sapiens, UniProt P14780)
T1 construct: gene MMP9; recombinant catalytic domain of MMP-9 (CDMMP-9), 39 kDa, aa 107–457 + NT His Tag
Assay: fluorometric inhibition assay with self-quenched peptide substrate; double reciprocal and secondary plots
Type: biochemical
From the text: fluorometric inhibition assay with self-quenched peptide substrate; double reciprocal and secondary plots on matrix metalloproteinase 9 (MMP-9) | competitive inhibition of the activity performed by the MMP-9 catalytic domain (CDMMP-9) (Figure 3A), and allowed to define a Ki

T1 sequence (P14780 107-457): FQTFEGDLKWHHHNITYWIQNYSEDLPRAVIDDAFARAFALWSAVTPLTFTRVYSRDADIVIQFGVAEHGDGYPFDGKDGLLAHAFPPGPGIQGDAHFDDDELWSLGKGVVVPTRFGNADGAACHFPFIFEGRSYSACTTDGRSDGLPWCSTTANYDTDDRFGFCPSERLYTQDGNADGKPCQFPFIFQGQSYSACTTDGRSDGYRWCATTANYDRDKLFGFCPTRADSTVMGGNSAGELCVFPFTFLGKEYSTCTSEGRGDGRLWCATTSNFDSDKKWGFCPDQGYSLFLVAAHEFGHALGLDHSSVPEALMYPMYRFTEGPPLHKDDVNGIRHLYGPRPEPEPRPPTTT

Ki: 57.4 ± 3.96 µM
SMILES: O=C(/C=C/c1ccc(O)c2c1[C@H](C(=O)O[C@H](Cc1ccc(O)c(O)c1)C(=O)O)[C@@H](c1ccc(O)c(O)c1)O2)O[C@H](Cc1ccc(O)c(O)c1)C(=O)O [SalB, Salvianolic acid B]
